For data set [1] the following is noted: polymorph A (marketed) vs form B; cited from earlier work.
A short description of data set [2]: Thermodynamic aqueous solubility by HPLC. It counts as physicochemical. Conditions: purified water; for Aqueous solubility: pH 7, 25° C., 24 hours, 20 mg in 1 ml. Here is the method: Thermodynamic Aqueous Solubility by HPLC: Aqueous solubility was determined by suspending sufficient compound in HPLC grade water to give a maximum final concentration of ≧20 mg ml^−1 of the parent compound. The suspension was equilibrated at 25° C. for 24 hours. The suspension was then filtered through a filter into a HPLC vial. The filtrate was then diluted by an appropriate factor. Quantification was executed by HPLC with reference to a standard solution of approximately 0.5 mg ml^−1 in Acetonitrile:Water: (1:1). Different volumes of the standard, diluted and undiluted sample solutions were injected. The solubility was calculated using the peak areas determined by integration of the peak found at the same retention time as the principal peak in the standard injection.
Analysis was performed on an Agilent 1100 series liquid chromatography, equipped with a UV detector (DAD or VWD) @254 nm and using Chemstation Rev.B.01.03 software for data processing. Chemical purity determination by HPLC.
As amorphous material and Form I were in hand, both samples were exposed to a straight forward aqueous solubility study in purified water at 25° C. This experiment was performed as it was unknown whether crystalline or amorphous material was initially isolated in-house during a previous synthesis campaign.
• A suspension of 20 mg of the candidate was mixed in purified water (1 ml, pH 7). The suspension was equilibrated at 25° C. for 24 hours. The suspension was then filtered into an HPLC vial and the filtrate then diluted by an appropriate factor with quantification being executed by HPLC with reference to a standard solution.

Data set [3] is described as follows: Crash cooling of a melt, LC/HPLC analysis (stability at temperature). It counts as physicochemical. Here is the method:
As there was historical experimental proof of generating amorphous material by heating RPL554 Form I up to 245° C. and rapidly cooling the melt, a repeat of this method was performed (TGA basis) and produced the same, clear, yellow, glass like material.
A proposed glass transition can be observed at approximately 120° C., with no formal recrystallisation observed. While this experiment was running, the sample was submitted for LC analysis, as stability at temperature was known to be a potential issue (observation of TGA). […] The experiment was repeated at a lower temperature (240° C.), this trying to avoid decomposition and thus return a better profile in terms of purity. LC analysis returned a similar profile of very low purity and various secondary products. It was therefore apparent that amorphous material would not be generated in this manner.

Data set [4] in a line: Slurry maturation (heat/cool cycles), XRPD. It is filed as physicochemical. Particulars: 24 solvents, cycled 20° C./50° C., 8 hour periods, 4 days. On the procedure:
24× Slurry maturations were performed in an attempt to stress the current crystalline solid into undergoing form transformation.
• Some 20 mg of material was agitated in glass tubes in approximately 30 volumes of solvent and cycled between isothermal periods (8 hours) of 20° C. and 50° C. After 4 days of cycling, the solids were filtered off and dried in vacuo at 45° C. prior to analysis by XRPD. All results were compared to the starting material, RPL554 (Form I); see Table 4.

Data set [5] can be described thus: Applied pressure (100 KN), XRPD and DSC. It counts as physicochemical. Particulars: overnight, 10 mg. On the procedure:
Applied pressure (100 KN): 10 mg of RPL554 was left in a pressing disc system overnight, forming a fine and uniform disc with a thickness of less than 0.1 mm. The disc was gently ground and analysed by XRPD (FIG. 13).

SMILES strings stand for the structures.

The term Aqueous solubility denotes the dissolved amount per volume that the medium holds. Read a high Aqueous solubility as a readily soluble substance.

As to `CCCCCCCCCCCCCCCC(=O)OC[C@@H](NC(=O)C(Cl)Cl)[C@H](O)c1ccc([N+](=O)[O-])cc1` [Chloramphenicol-3-palmitate], the “Difference in bio-activity between form A and form B” value in data set [1] is listed as “eight”.

With `COc1cc2c(cc1OC)-c1c/c(=N\c3c(C)cc(C)cc3C)n(CCNC(N)=O)c(=O)n1CC2` [JN376F], the “Aqueous solubility compared with Form I” value in data set [2] (25° C.) is “more soluble than Form I”. The Aqueous solubility in data set [2] was determined as 30 µg/mL.

On to `COc1cc2c(cc1OC)-c1c/c(=N\c3c(C)cc(C)cc3C)n(CCNC(N)=O)c(=O)n1CC2` [RPL554, N-{2-[(2E)-2-(mesitylimino)-9,10-dimethoxy-4-oxo-6,7-dihydro-2H-pyrimido[6,1-a]-isoquinolin-3 (4H)-yl]ethyl}urea], for which, in data set [3] (crash cooled melt, amorphous by XRPD), the “Product by HPLC analysis after crash cooling a melt” value was less than 20%. The “Starting material remaining by LC after crash cooled melt” value in data set [3] (heated up to 245° C. and rapidly cooled) was 26%. The “Form change on slurry maturation (XRPD)” value in data set [4] is on record as “extremely resilient to change”. In data set [2], this compound yielded an Aqueous solubility of 1 µg/mL. The “Form change under applied pressure (XRPD)” value in data set [5] was “generates an amorphous phase”.

Source of the values: patent publication US9062047B2, “Crystalline form of pyrimido[6,1-A] isoquinolin-4-one compound” (Verona Pharma plc, priority 2010, dated 2015).
